Patent publication US20080269298A1, “Benzimidazol-1-YL-thiophene compounds for the treatment of cancer” (priority 2002, published 2008)

Assays:
[1] = molecular target: T1, PLK1 kinase domain (Homo sapiens, UniProt P53350); test: Assay for Inhibition of PLK1 (SPA enzyme activity); format: biochemical; settings: 2 μM ATP, read-out: Ave pIC50 PLK Enzyme Inhibition (converted)
T1 construct: made in house; host or cells: baculovirus-infected T. ni insect cells
Method: All procedures were performed at 4° C. Cells were lysed in so mM HEPES, 200 mM NaCl, so mM imidazole, 5% glycerol; pH 7.5. The homogenate was centrifuged at 14K rpm in a SLA-1500 rotor for 1 hr and the supernatant filtered through a 1.2 micron filter. The supernatant was loaded onto a Nickel chelating Sepharose (Amersham Pharmacia) column and washed with lysis buffer. Protein was eluted using 20%, 30% and 100% buffer B steps where buffer B is 50 mM HEPES, 200 mM NaCl, 300 mM imidazole, 5% glycerol; pH 7.5. Fractions containing PLK were determined by SDS-PAGE. Fractions containing PLK were diluted five-fold with so mM HEPES, 1 mM DTT, 5% glycerol; pH 7.5, then loaded on an SP Sepharose (Amersham Pharmacia) column. After washing the column with so mM HEPES, 1 mM DTT, 5% glycerol; pH 7.5, PLK was step eluted with so mM HEPES, 1 mM DTT, 500 mM NaCl; 5% glycerol; pH 7.5. PLK was concentrated using a 10 kDa molecular weight cutoff membrane and then loaded onto a Superdex 200 gel filtration (Amersham Pharmacia) column equilibrated in 25 mM HEPES, 1 mM DTT, 500 mM NaCl, 5% glycerol; pH 7.5. Fractions containing PLK were determined by SDS-PAGE. PLK was pooled, aliquoted and stored at −80° C. Samples were quality controlled using mass spectrometry, N-terminal sequencing and amino acid analysis.
B. Enzyme activity+/−inhibitors was determined as follows:
Compounds were added to the plate (1 μl in […]). […] Reaction Mix B is prepared as follows at 4° C.: • Reaction Mix B (Enzyme Mix) • 25 mM HEPES, pH 7.2 • 15 mM MgCl2 • 0.15 mg/ml BSA • 2 mM DTT • 2-10 nM PLK1 kinase domain
Reaction Mix A (20 μl) is added per well. Reaction Mix B (20 μl) is added per well. Incubate 1.5 hrs. at RT. The enzymatic reaction is stopped with 175 μl of SPA/EDTA bead mix (29 mM EDTA, 2.5 mg/ml Streptavidin-coated SPA in Standard Dulbecco's PBS (without Mg^2+ and Ca^2+), 60 μM ATP). Plates are sealed spun (after a 1 hr incubation at RT) at 1,000×g for 7 min or settled overnight, then plates counted in Packard TopCount for 30 seconds/well.

[2] = tested on: breast tumor (MCF7) cell line; test: Methylene Blue Growth Inhibition Assay, MCF7; format: cell-based; settings: Homo sapiens, 72 h; Cell Line MCF7, 3 days; read-out: MeB IC50
Method: (§1) Normal Human foreskin fibroblasts (HFF) and human colon (HCT116, RKO), lung (H460), prostate (PC3), and breast tumor (MCF7) cell lines were cultured in high glucose DMEM (Life Technologies) containing 10% fetal bovine serum (FBS) at 37° C. in a humidified 10% CO2, 90% air incubator. Cells were harvested using trypsin/EDTA, counted using a haemocytometer, and plated in 100 μl of the appropriate media, at the following densities, in a 96-well tissue culture plate (Falcon 3075): HFF 5,000 cells/well, HCT116 3,000 cells/well, RKO 2,500 cells/well, H460 2,000 cells/well, PC3 8,000 cells/well, MCF7 4,000 cells/well. The next day, compounds were diluted in DMEM containing 100 μg/ml gentamicin, at twice the final required concentration, from 10 mM stock solutions in DMSO. 100μ/well of these dilutions were added to the 100 μl of media currently on the cell plates. Medium containing 0.6% DMSO was added to control wells. Compounds diluted in DMEM were added to all cell lines. The final concentration of DMSO in all wells was 0.3%. Cells were incubated at 37° C., 10% CO2 for 3 days. Medium was removed by aspiration. Cell biomass was estimated by staining cells with […] per well methylene blue (Sigma M9140, 0.5% in 50:50 ethanol:water), and incubation at room temperature for at least 30 minutes. Stain was removed, and the plates rinsed under a gentle stream of water, and air-dried. To release stain from the cells 100 μl of solubilization solution was added (1% N-lauroyl sarcosine, Sodium salt, Sigma L5125, in PBS), and plates were shaken gently for about 30 minutes. Optical density at 620 nm was measured on a microplate reader. Percent inhibition of cell growth was calculated relative to vehicle treated control wells. Concentration of compound that inhibits 50% of cell growth (IC50) was interpolated using nonlinear regression (Levenberg-Marquardt) and the equation, y=Vmax*(1-(x/(K+x)))+Y2, where “K” was equal to the IC50. In Table 1, +=10−>30 uM; ++=1−10 uM: +++=<1 uM.

[3] = tested on: colon (HCT116) tumor cell line; test: Methylene Blue Growth Inhibition Assay, HCT116; format: cell-based; settings: Homo sapiens, HCT-116, 72 h; Cell Line HCT116, 3 days; read-out: MeB IC50
Method: as §1

[4] = tested on: lung (H460) tumor cell line; test: Methylene Blue Growth Inhibition Assay, H460; format: cell-based; settings: Homo sapiens, NCI-H460, 72 h; Cell Line H460, 3 days; read-out: MeB IC50
Method: as §1

[5] = tested on: colon (RKO) tumor cell line; test: Methylene Blue Growth Inhibition Assay, RKO; format: cell-based; settings: Homo sapiens, 72 h, 3 days, read-out: MeB IC50
Method: as §1

[6] = tested on: Normal Human foreskin fibroblasts (HFF); test: Methylene Blue Growth Inhibition Assay, HFF; format: cell-based; settings: 72 h, Cell Line HFF, 3 days, read-out: MeB IC50
Method: as §1

[7] = tested on: prostate (PC3) tumor cell line; test: Methylene Blue Growth Inhibition Assay, PC3; format: cell-based; settings: Homo sapiens, 72 h; Cell Line PC3, 3 days; read-out: MeB IC50
Method: as §1

T1 sequence (P53350 21-346): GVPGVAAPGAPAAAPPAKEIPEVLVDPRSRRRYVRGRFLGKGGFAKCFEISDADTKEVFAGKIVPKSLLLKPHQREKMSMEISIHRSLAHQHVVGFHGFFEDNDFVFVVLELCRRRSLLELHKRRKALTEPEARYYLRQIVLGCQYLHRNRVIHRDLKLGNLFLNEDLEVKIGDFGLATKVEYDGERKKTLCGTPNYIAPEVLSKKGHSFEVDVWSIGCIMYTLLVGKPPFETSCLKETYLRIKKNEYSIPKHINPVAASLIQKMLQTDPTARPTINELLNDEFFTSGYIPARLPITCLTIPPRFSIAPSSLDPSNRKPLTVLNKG

SMILES	IC50 [1] [µM]	IC50 [2] [µM]	IC50 [3] [µM]	IC50 [4] [µM]	IC50 [5] [µM]	IC50 [6] [µM]	IC50 [7] [µM]
Cc1ccccc1COc1cc(-n2cnc3ccccc32)sc1C(N)=O [Example 4, 5-(1H-Benzimidazol-1-yl)-3-[(2-methylbenzyl)oxy]-2-thiophenecarboxamide]	< 0.1						
Cc1cccc(COc2cc(-n3cnc4ccccc43)sc2C(N)=O)c1 [Example 13, 5-(1H-Benzimidazol-1-yl)-3-[(3-methylbenzyl)oxy]-2-thiophenecarboxamide]	< 0.1						
COc1cccc(COc2cc(-n3cnc4ccccc43)sc2C(N)=O)c1 [Example 14, 5-(1H-Benzimidazol-1-yl)-3-[(3-methoxybenzyl)oxy]-2-thiophenecarboxamide]	< 0.1						
NC(=O)c1sc(-n2cnc3ccccc32)cc1OCc1cccc(Cl)c1 [Example 15, 5-(1H-Benzimidazol-1-yl)-3-[(3-chlorobenzyl)oxy]-2-thiophenecarboxamide]	< 0.1						
Cc1ccccc1COc1cc(-n2cnc3cc(Cl)ccc32)sc1C(=O)O [Example 34, 5-(5-Chloro-1H-benzimidazol-1-yl)-3-[(2-methylbenzyl)oxy]thiophene-2-carboxylic acid]	< 0.1	> 10	> 10	> 10	> 10	> 10	> 10
Cc1ccccc1COc1cc(-n2cnc3ccc(Cl)cc32)sc1C(=O)O [Example 35, 5-(6-Chloro-1H-benzimidazol-1-yl)-3-[(2-methylbenzyl)oxy]thiophene-2-carboxylic acid]	< 0.1	> 10	> 10	> 10	> 10	> 10	> 10
CC(=O)c1sc(-n2cnc3ccc(Cl)cc32)cc1OCc1ccccc1C [Example 39, 1-{5-(6-Chloro-1H-benzimidazol-1-yl)-3-[(2-methylbenzyl)oxy]thien-2-yl}ethanone]	0.1 to 10	> 10	> 10	> 10	> 10	> 10	> 10
Cc1ccccc1COc1cc(-n2cnc3ccc(Cl)cc32)sc1C(N)=O [Example 61]	< 0.1	1 to 10	1 to 10	1 to 10	1 to 10	> 10	> 10
NC(=O)c1sc(-n2cnc3ccc(Br)cc32)cc1OCc1ccccc1C(F)(F)F [Example 62, 5-(6-Bromo-1H-benzimidazol-1-yl)-3-{[2-(trifluoromethyl)benzyl]-oxy}thiophene-2-carboxamide]	< 0.1	< 1	< 1	< 1	< 1	1 to 10	> 10
COc1cc2ncn(-c3cc(OCc4ccccc4C(F)(F)F)c(C(N)=O)s3)c2cc1OC [Example 63, 5-(5,6-Dimethoxy-1H-benzimidazol-1-yl)-3-{[2-(trifluoromethyl)-benzyl]oxy}thiophene-2-carboxamide]	< 0.1	< 1	< 1	< 1	< 1	1 to 10	1 to 10
COc1cc2ncn(-c3cc(OCc4ccccc4C(F)(F)F)c(C(=O)O)s3)c2cc1OC [Example 75]		> 10	1 to 10	> 10	> 10	> 10	> 10
NC(=O)c1sc(-n2cnc3cc(Cl)ccc32)cc1OCc1ccccc1 [Example 84, 3-(Benzyloxy)-5-(5-chloro-1H-benzimidazol-1-yl)thiophene-2-carboxamide]	< 0.1						
COc1cc2ncn(-c3cc(OCC4CCCCC4)c(C(N)=O)s3)c2cc1OC [Example 111, 3-(Cyclohexylmethoxy)-5-(5,6-dimethoxy-1H-benzimidazol-1-yl)thiophene-2-carboxamide]		1 to 10	1 to 10	1 to 10	1 to 10	> 10	1 to 10
COc1cc2ncn(-c3cc(OCCc4ccccc4)c(C(N)=O)s3)c2cc1OC [Example 114, 5-(5,6-Dimethoxy-1H-benzimidazol-1-yl)-3-(2-phenylethoxy)-thiophene-2-carboxamide]		> 10	> 10	> 10	> 10	> 10	> 10
COc1cc2ncn(-c3cc(OCCCc4ccccc4)c(C(N)=O)s3)c2cc1OC [Example 115, 5-(5,6-Dimethoxy-1H-benzimidazol-1-yl)-3-(3-phenylpropoxy)thiophene-2-carboxamide]		1 to 10	1 to 10	1 to 10	1 to 10	> 10	> 10
NC(=O)c1sc(-n2cnc3ccccc32)cc1OCc1ccccc1C(F)(F)F [Example 116, 5-(1H-Benzimidazol-1-yl)-3-{[2-(trifluoromethyl)benzyl]oxy}thiophene-2-carboxamide]		< 1	1 to 10	< 1	< 1	1 to 10	> 10
Cc1ccccc1COc1cc(-n2cnc3cc(O)ccc32)sc1C(=O)O [Example 141, 5-(5-Hydroxy-1H-benzimidazol-1-yl)-3-[(2-methylbenzyl)oxy]-thiophene-2-carboxylic acid]	< 0.1						
O=C(NO)c1sc(-n2cnc3ccccc32)cc1OCc1ccccc1 [Example 144, 5-(1H-Benzimidazol-1-yl)-3-(benzyloxy)-N-hydroxythiophene-2-carboxamide]	0.1 to 10						
COc1cc2ncn(-c3cc(OCc4ccccc4C(F)(F)F)c(C#N)s3)c2cc1OC [Example 146, 5-(5,6-Dimethoxy-1H-benzimidazol-1-yl)-1-{[2-(trifluoromethyl)benzyl]oxy}thiophene-2-carbonitrile]	0.1 to 10						
COc1cc2ncn(-c3cc(OCc4ccccc4C(F)(F)F)c(-c4nnn[nH]4)s3)c2cc1OC [Example 147, 5,6-Dimethoxy-1-(5-(1H-tetraazol-5-yl)-4-{[2-(trifluoromethyl)-benzyl]oxy}thien-2-yl)-1H-benzimidazole]		> 10	> 10	> 10	> 10	> 10	> 10
